Experiments:
[1] = test system: cuprizone demyelinated mice; experiment: Object location task (spatial memory) in cuprizone-demyelinated mice; format: in vivo, mouse; conditions: for Spatial discrimination index (d2), object location task: day 45 and 47; for Spatial memory in the object location task (D2): day 47, 3 h inter-trial-interval
Excerpt: FIG. 11: Inhibition of PDE4 by roflumilast improves spatial memory upon cuprizone-induced demyelination—a functional measure for remyelination. Forty-two nine-weeks-old male C57bl6 mice were trained for the object location task (OLT) as described previously (Sierksma et al. 2014) (day −14−0). Subsequently, three groups were fed a 0.3% cuprizone diet for 6 weeks to induce demyelination while the control group received a regular chow diet (day 0-42). From day 40 till day 49, control (n=10) and vehicle (n=10) treated animals received a s.c. injection with a 1% DMSO in 0.5% methylcellulose solution or roflumilast (roflu 1 mg/kg (n=11) or roflu 3 mg/kg (n=11) in vehicle) twice a day. All animals were sacrificed at day 49 (A). During the last phase of the cuprizone treatment (demyelination), the OLT was performed at the 3 h inter-trial-interval at day 39.
Next, the OLT was performed during remyelination following cuprizone withdrawal, respectively at 47. […] A one sample t-test was performed to test for spatial memory (e.g. D2≠0*p<0.05; **p<0.01; ***p<0.001). […] All mice not reaching an exploration time of 4 s in either of two trials were excluded from analyses. Extreme values were excluded by means of Dixon's principles of exclusion of extreme values.
FIG. 14: Inhibition of PDE4D by Gebr32a improves spatial memory upon cuprizone-induced demyelination—a functional measure for remyelination. Eighty-eight nine-weeks-old male C57bl6 mice were trained for the object location task (OLT; n=22 per group) as described previously (Sierksma et al. 2014) (day −14−0). Subsequently, three groups were fed a 0.3% cuprizone diet for 6 weeks to induce demyelination while the control group received a regular chow diet (day 0-42). From day 40 till day 49, control and vehicle treated animals received a s.c. injection with a 1% DMSO in 0.5% methylcellulose solution or gebr32a (0.1 mg/kg or 0.3 mg/kg in vehicle) twice a day. All animals were sacrificed at day 49 (A).
Next, the OLT was performed during remyelination following cuprizone withdrawal, respectively at day 45 and 47.
A one sample t-test was performed to test for spatial memory (e.g. D2=/0; *p<0.05; **p<0.01; ***p<0.001). A one-way ANOVA with a Tukey's multiple comparison test was performed. All mice not reaching an exploration time of 4 s in either of two trials were excluded from analyses. Extreme values were calculated and excluded by means of Dixon's principles of exclusion of extreme values.
At the start of the experiment, all animals were phenotyped for baseline cognitive performance in the object location task. Afterwards, 4 groups were defined (n1=13, n2=16, n3=11, n4=11) and group 2, 3 and 4 were subjected to a 0.3% w/w cuprizone diet (Bis(cyclohexanone)-oxaldihydrazone) (Sigma-Aldrich, United States) for 42 days. […]

[2] = Emetic side-effects at the remyelination-inducing dose; format: in vivo
[3] = test system: primary rat Schwann cells; experiment: Differentiation of primary rat Schwann cells; format: cell-based; conditions: Roflumilast 5 or 10 μM, BPN14770 1 or 5 μM
Protocol: FIG. 16: Inhibition of PDE4 by roflumilast and PDE4D by BPN induces differentiation of primary rat schwann cells. Primary rat schwann cells were isolated from p3 Wistar rats. Primary rat schwann cells were cultured onto an aligned network of electrospinned fibers and stimulated with vehicle (0.1% DMSO), the PDE4 inhibitor Roflumilast (5 μM or 10 μM) or the PDE4D inhibitor BPN (1 μM or 5 μM), both dissolved in 0.1% DMSO. Cells were fixated (IHC) or lysated (WB and qPCR) at day 14.
A: Primary rat schwann cells were stained for MBP (red) and MAG (green), both markers for Schwann cells differentiation (100.000 cells).
B: MBP and β-actin protein expression of primary rat schwann cells was analyzed using western blot (500.000 cells)
C: qPCR was conducted to evaluate changes in mRNA expression of MBP, PLP, MAG and SOX10. The expression of all these genes was increased upon PDE4 or PDE4D inhibition.
Primary rat Schwann cells were isolated from p3 Wistar rats. […] MBP and β-actin protein expression was analyzed using western blot analysis on primary rat Schwann cells (500.000 cells). […] Data were analyzed using a one-way ANOVA with Dunnett's multiple comparison test (compared to control); *p<0.05, **p<0.01, ***p<0.001. qPCR was conducted to evaluate changes in mRNA expression of MBP, PLP, MAG and SOX10.

| SMILES | Spatial discrimination index (d2), object location task ([1]; 0.1 mg/kg s.c. twice a day) | Spatial discrimination index (d2), object location task ([1]; 0.3 mg/kg s.c. twice a day) | Spatial memory in the object location task (D2) ([1]; 1 mg/kg s.c. twice a day) | Spatial memory in the object location task (D2) ([1]; 3 mg/kg s.c. twice a day) | Emetic side-effects [2] | MBP and MAG protein expression (IHC) ([3]; day 14) | mRNA expression of MBP, MAG, PLP and SOX10 (qPCR) ([3]; vs control conditions) |
| --- | --- | --- | --- | --- | --- | --- | --- |
| OC(CN1CCOCC1)Cn1ccc(-c2ccc(OC(F)F)c(OC3CCCC3)c2)n1 (stereo not shown) [Gebr32a] | restored the spatial discrimination index (d2) to a level comparable to that of the control animals | restored the spatial discrimination index (d2) to a level comparable to that of the control animals | – | – | – | – | – |
| O=C(Nc1c(Cl)cncc1Cl)c1ccc(OC(F)F)c(OCC2CC2)c1 [roflumilast] | – | – | did not show a recovery of the spatial memory | significant recovery of spatial memory | displayed emetic side-effects | increases dose-dependently | increased |
